Measured values taken from US20220288069A1, “INHIBITORS OF TYROSINE KINASE” (BridGene Biosciences, Inc., priority 2019, published 2022).

What was measured:
[1] = target: T1, RON (Homo sapiens, UniProt Q04912); assay: Caliper mobility shift kinase inhibition assay, RON; format: biochemical; details: recombinant kinase; enzyme 0.4 nM, ATP 20 μM, incubation 3 hr
T1 construct: purchased Invitrogen PV4314
Procedure: (§1) Compounds' inhibition of recombinant kinases (FGR, FLT3, FMS, KIT, or RON) was measured using Caliper mobility shift assay, which is based on the difference in capillary electrophoresis mobility of a fluorescent-tagged peptide as a result of a phosphorylation by the kinase under study. Reactions were started by the addition of various concentrations of a compound (originally in DMSO solution) to a kinase solution in assay buffer followed by addition of a mixture of ATP and a fluorescent-tagged peptide substrate in assay buffer. Concentrations of the enzyme, ATP and the peptide were pre-optimized so that 15% substrate conversion to ensure initial velocity measurements. After incubation for 3 hours at room temperature, the kinase reaction was quenched by the addition of a concentrated EDTA solution before analysis on a LabChip EZ Reader II to yield percentage inhibition by comparing to the DMSO control.
(§2) Table 2 below summarizes the assay conditions for the characterization of the kinase inhibition properties of the disclosed compounds.

[2] = target: T2, FMS (Homo sapiens, UniProt P07333); assay: Caliper mobility shift kinase inhibition assay, FMS; format: biochemical; details: recombinant kinase; enzyme 0.25 nM, ATP 100 μM, incubation 3 hr
T2 construct: purchased Invitrogen PV3249
T2 sequence (P07333 20-972): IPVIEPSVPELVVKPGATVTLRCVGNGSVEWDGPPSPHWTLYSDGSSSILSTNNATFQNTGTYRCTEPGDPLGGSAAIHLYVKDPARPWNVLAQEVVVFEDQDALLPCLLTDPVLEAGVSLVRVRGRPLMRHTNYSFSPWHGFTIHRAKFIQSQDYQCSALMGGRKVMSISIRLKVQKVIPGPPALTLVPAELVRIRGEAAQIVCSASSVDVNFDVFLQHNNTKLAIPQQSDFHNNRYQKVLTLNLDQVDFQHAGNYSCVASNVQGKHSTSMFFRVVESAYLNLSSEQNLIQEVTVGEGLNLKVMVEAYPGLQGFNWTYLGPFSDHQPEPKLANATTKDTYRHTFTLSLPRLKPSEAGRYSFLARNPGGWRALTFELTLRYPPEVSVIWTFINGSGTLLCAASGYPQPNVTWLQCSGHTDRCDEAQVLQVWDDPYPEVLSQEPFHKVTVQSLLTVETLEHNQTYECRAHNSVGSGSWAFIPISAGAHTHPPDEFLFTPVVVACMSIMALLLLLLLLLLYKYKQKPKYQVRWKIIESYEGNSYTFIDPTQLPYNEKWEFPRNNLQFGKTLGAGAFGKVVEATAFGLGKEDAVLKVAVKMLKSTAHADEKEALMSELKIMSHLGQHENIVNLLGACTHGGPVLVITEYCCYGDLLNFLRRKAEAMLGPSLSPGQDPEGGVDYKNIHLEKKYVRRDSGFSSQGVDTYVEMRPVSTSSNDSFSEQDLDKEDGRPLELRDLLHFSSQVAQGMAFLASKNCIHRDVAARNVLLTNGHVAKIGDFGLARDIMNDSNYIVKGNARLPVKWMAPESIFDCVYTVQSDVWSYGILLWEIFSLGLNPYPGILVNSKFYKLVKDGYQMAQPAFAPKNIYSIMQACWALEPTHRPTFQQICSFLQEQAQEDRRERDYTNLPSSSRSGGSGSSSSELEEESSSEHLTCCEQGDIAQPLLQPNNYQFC
Procedure: as §1, §2

[3] = system: MV4−11; assay: Cell viability assay (CellTiter-Glo), MV4-11; format: cell-based; details: Homo sapiens, MV4-11 cells, 72 hr
Procedure: (§3) Cell viability assay was performed based on the following brief procedures. Cells were plated at the density of 5K/well with volume of […] in 96-well white plate and clear bottom plates. 20 μL of veh. or compound was added at proper concentration to the well. The final volume is 200 μL, with final conc. of DMSO32 0.1%, 11 points, triplicates. The cells were then treated at 37° C. in the TC incubator for 72 hr. Equal volume (200 μL) of CellTiter-Glo reagent (Promega) was added to the well and protect from light at room temperature for 15 min. The chemiluminicent was measured with EnSight (Perkin Elmer). GraphPad Prism non-linear regression, Log[inhibitor] response with four parameters were used to calculate GI50.

[4] = target: T3, FGR (Homo sapiens, UniProt P09769); assay: Caliper mobility shift kinase inhibition assay, FGR; format: biochemical; details: recombinant kinase; enzyme 0.3 nM, ATP 50 μM, incubation 3 hr
T3 construct: purchased BPS 4022
T3 sequence (P09769 whole entry): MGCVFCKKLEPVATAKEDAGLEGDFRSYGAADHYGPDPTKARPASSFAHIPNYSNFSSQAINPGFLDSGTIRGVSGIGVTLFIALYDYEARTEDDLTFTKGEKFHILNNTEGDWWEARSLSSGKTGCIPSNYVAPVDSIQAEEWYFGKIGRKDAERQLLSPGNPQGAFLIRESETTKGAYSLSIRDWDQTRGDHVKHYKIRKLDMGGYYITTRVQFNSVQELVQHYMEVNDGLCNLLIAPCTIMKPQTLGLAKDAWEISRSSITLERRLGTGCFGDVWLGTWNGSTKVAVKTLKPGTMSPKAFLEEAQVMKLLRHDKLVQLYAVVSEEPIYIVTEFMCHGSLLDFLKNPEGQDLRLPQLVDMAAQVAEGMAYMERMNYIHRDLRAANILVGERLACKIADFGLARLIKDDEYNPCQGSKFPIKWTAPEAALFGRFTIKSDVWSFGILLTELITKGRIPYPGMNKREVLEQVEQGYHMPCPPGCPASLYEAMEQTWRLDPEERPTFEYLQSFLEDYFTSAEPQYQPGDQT
Procedure: as §1, §2

[5] = target: T4, KIT (Homo sapiens, UniProt P10721); assay: Caliper mobility shift kinase inhibition assay, KIT; format: biochemical; details: recombinant kinase; enzyme 0.9 nM, ATP 400 μM, incubation 17 hr
T4 construct: purchased BPS 40250
T4 sequence (P10721 26-976): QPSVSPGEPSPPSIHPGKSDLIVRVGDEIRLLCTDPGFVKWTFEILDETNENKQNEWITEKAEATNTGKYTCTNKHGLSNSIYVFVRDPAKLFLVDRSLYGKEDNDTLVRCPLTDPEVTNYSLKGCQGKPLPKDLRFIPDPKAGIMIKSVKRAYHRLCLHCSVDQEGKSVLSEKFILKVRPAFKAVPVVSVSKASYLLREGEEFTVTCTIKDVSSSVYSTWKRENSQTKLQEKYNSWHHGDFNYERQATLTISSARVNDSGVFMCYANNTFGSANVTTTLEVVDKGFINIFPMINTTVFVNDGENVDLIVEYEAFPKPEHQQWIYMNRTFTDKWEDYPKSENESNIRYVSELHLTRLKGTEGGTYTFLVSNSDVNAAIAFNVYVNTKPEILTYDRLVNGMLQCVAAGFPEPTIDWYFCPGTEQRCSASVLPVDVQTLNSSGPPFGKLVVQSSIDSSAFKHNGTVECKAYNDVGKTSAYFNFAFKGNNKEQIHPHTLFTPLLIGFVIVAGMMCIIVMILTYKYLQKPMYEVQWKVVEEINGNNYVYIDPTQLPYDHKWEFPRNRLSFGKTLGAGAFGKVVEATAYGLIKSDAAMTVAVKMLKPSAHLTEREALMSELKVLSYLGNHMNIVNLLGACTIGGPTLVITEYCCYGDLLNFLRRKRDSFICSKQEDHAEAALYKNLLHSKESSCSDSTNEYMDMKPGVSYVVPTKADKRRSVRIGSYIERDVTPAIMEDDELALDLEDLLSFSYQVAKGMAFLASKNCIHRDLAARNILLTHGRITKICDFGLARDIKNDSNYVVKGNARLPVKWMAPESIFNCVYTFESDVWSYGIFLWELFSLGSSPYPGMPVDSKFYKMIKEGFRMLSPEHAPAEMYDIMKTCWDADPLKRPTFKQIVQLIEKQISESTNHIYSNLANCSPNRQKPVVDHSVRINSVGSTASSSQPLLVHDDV
Procedure: as §1, with “After incubation for 3 hours at room temperature, the kinase reaction was quenched by the addition of a concentrated EDTA solution before analysis on a LabChip EZ Reader II to yield percentage inhibition by comparing to the DMSO control.” left out
as §2

[6] = target: T5, FLT3 (Homo sapiens, UniProt P36888); assay: Caliper mobility shift kinase inhibition assay, FLT3; format: biochemical; details: recombinant kinase; enzyme 0.1 nM, ATP 95 μM, incubation 3 hr
T5 construct: purchased ThermoFisher PV3182
T5 sequence (P36888 27-993): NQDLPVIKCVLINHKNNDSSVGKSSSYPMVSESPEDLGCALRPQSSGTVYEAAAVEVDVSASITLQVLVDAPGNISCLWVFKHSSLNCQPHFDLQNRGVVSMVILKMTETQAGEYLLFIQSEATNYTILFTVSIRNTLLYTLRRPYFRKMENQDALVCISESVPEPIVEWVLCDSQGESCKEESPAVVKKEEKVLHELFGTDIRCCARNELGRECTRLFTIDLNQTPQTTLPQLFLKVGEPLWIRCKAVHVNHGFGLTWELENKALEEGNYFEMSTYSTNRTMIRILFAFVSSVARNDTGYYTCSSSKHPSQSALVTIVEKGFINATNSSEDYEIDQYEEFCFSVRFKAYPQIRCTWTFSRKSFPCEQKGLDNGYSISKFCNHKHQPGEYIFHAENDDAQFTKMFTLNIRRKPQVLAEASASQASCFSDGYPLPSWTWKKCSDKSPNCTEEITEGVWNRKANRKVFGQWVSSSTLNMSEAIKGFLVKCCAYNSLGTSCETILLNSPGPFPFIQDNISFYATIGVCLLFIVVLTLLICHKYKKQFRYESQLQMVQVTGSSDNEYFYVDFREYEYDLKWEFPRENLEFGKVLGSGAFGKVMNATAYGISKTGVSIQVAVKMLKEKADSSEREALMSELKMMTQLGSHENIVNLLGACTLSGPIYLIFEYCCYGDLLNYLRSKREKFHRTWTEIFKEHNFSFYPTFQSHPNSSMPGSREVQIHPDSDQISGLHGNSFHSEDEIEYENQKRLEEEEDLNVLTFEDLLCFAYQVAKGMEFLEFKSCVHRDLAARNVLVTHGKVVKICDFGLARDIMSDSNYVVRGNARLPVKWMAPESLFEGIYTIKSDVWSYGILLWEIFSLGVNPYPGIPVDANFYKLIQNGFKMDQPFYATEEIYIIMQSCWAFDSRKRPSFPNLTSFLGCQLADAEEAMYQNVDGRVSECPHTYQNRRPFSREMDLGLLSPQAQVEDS
Procedure: as §1, §2

[7] = system: Kasumi−1; assay: Cell viability assay (CellTiter-Glo), Kasumi-1; format: cell-based; details: Homo sapiens, Kasumi-1 cells, 72 hr
Procedure: as §3

[8] = system: THP−1; assay: Cell viability assay (CellTiter-Glo), THP-1; format: cell-based; details: Homo sapiens, THP-1 cells, 72 hr
Procedure: as §3

T1 sequence (Q04912 25-1400): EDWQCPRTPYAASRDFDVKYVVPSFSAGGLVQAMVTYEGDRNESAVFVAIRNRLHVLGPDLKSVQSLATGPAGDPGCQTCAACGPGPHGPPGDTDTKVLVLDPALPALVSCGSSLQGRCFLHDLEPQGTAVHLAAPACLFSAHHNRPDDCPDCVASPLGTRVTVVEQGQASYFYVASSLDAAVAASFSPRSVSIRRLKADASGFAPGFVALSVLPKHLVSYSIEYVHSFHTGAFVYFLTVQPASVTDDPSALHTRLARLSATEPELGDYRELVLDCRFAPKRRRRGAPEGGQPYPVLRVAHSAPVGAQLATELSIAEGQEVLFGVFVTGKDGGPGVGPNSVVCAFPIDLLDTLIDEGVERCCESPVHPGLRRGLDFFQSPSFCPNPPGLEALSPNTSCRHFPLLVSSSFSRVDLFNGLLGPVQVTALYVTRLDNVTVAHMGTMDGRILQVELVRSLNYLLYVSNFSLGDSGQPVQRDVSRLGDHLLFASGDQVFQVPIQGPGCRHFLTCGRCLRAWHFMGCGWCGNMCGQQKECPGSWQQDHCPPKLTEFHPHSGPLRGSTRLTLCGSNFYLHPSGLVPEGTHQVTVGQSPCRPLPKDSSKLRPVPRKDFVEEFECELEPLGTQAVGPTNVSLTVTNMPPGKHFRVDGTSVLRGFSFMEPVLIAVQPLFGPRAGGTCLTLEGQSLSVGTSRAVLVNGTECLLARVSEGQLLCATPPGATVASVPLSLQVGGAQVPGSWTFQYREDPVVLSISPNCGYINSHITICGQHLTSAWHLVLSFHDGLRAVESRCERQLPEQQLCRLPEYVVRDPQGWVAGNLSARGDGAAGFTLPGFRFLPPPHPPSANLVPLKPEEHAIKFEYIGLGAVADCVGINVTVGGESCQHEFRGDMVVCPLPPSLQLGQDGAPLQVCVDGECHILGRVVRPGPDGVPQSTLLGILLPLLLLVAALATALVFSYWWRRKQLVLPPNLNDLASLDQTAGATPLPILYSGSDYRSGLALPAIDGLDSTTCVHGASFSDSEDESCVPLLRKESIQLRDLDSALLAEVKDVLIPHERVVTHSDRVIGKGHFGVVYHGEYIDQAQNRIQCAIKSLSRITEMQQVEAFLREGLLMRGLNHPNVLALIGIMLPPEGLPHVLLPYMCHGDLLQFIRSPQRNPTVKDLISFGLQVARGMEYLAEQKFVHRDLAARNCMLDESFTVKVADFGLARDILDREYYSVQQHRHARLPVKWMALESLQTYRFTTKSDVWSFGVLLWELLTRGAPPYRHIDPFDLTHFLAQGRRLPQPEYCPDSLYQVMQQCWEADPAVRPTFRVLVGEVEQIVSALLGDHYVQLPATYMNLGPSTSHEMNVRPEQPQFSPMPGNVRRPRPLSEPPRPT

Row | IC50 [1] | IC50 [2] | GI50 [3] | IC50 [4] | IC50 [5] | IC50 [6] | GI50 [8] | Structure (SMILES) | GI50 [7]
1 | 100 to 1000 nM | < 10 nM | < 10 nM | 10 to 100 nM | < 10 nM | < 10 nM | ≥ 1000 nM | Cc1cc(Nc2cc(NCCNC(=O)[C@H](C)N(C)C(=O)/C=C/CN(C)C)nc(Nc3ccc(CC#N)cc3)n2)n[nH]1 [Compound 1] | 100 to 1000 nM
2 |  |  | 10 to 100 nM |  | < 10 nM | < 10 nM | ≥ 1000 nM | Cc1cc(Nc2cc(NCCNC(=O)[C@@H]3CCCN3C(=O)/C=C/CN(C)C)nc(Nc3ccc(CC#N)cc3)n2)n[nH]1 [Compound 3] | ≥ 1000 nM
3 |  |  | < 10 nM |  | 10 to 100 nM | < 10 nM | 100 to 1000 nM | C=CC(=O)N(C)[C@@H](C)C(=O)NCCNc1cc(Nc2cc(C3CCC3)[nH]n2)nc(Nc2ccc(CC#N)cc2)n1 [Compound 4, (2S)—N-[2-[[2-[4-(cyanomethyl)anilino]-6-[(5-cyclobutyl-1H-pyrazol-3-yl)amino]pyrimidin-4-yl]amino]ethyl]-2-[methyl(prop-2-enoyl)amino]propanamide] | 100 to 1000 nM
4 |  |  | < 10 nM |  | 10 to 100 nM | < 10 nM | ≥ 1000 nM | CC#CC(=O)N(C)[C@@H](C)C(=O)NCCNc1cc(Nc2cc(C3CCC3)[nH]n2)nc(Nc2ccc(CC#N)cc2)n1 [Compound 5, N-[(1S)-2-[2-[[2-[4-(cyanomethyl)anilino]-6-[(5-cyclobutyl-1H-pyrazol-3-yl)amino]pyrimidin-4-yl]amino]ethylamino]-1-methyl-2-oxo-ethyl]-N-methyl-but-2-ynamide] | ≥ 1000 nM

Further lines, the molecule ahead of its results:

Row | Structure (SMILES) | IC50 [1] | IC50 [2] | GI50 [3] | IC50 [4] | IC50 [5] | IC50 [6] | GI50 [8] | GI50 [7]
5 | C=CC(=O)N(C)[C@@H](C)C(=O)NCCNc1cc(Nc2ncc(-c3ccccc3)s2)nc(C)n1 [Compound 9, (2S)—N-[2-[[2-methyl-6-[(5-phenylthiazol-2-yl)amino]pyrimidin-4-yl]amino]ethyl]-2-[methyl(prop-2-enoyl)amino]propanamide] |  |  | < 10 nM |  | < 10 nM | < 10 nM | ≥ 1000 nM | < 10 nM
6 | CCC(=O)N(C)[C@@H](C)C(=O)NCCNc1cc(Nc2ncc(-c3ccccc3)s2)nc(C)n1 [Compound 10, (2S)—N-[2-[[2-methyl-6-[(5-phenylthiazol-2-yl)amino]pyrimidin-4-yl]amino]ethyl]-2-[methyl(propanoyl)amino]propanamide] |  |  | < 10 nM |  | 10 to 100 nM | 10 to 100 nM | ≥ 1000 nM | 10 to 100 nM
7 | C=CC(=O)N(C)[C@@H](C)C(=O)NCCOc1cc(C)nc(Nc2ncc(-c3ccccc3)s2)c1 [Compound 12, (2S)—N-[2-[[2-methyl-6-[(5-phenylthiazol-2-yl)amino]-4-pyridyl]oxy]ethyl]-2-[methyl(prop-2-enoyl)amino]propanamide] |  |  | < 10 nM |  | < 10 nM | < 10 nM | ≥ 1000 nM | < 10 nM
8 | C=CC(=O)N(C)[C@@H](C)C(=O)NCCOc1cc(Nc2ncc(-c3ccccc3)s2)nc(C)n1 [Compound 13, (2S)—N-[2-[2-methyl-6-[(5-phenylthiazol-2-yl)amino]pyrimidin-4-yl]oxyethyl]-2-[methyl(prop-2-enoyl)amino]propanamide] |  |  | < 10 nM |  | < 10 nM | < 10 nM | ≥ 1000 nM | < 10 nM
9 | C=CC(=O)N(C)[C@@H](C)C(=O)NCCNc1cc(Nc2ncc(-c3ccncc3)s2)nc(C)n1 [Compound 17, (2S)-2-[methyl(prop-2-enoyl)amino]-N-[2-[[2-methyl-6-[[5-(4-pyridyl)thiazol-2-yl]amino]pyrimidin-4-yl]amino]ethyl]propanamide] |  |  | < 10 nM |  | < 10 nM | < 10 nM | ≥ 1000 nM | < 10 nM
10 | CC#CC(=O)N(C)[C@@H](C)C(=O)NCCNc1cc(Nc2ncc(-c3ccncc3)s2)nc(C)n1 [Compound 18, N-methyl-N-[(1S)-1-methyl-2-[2-[[2-methyl-6-[[5-(4-pyridyl)thiazol-2-yl]amino]pyrimidin-4-yl]amino]ethylamino]-2-oxo-ethyl]but-2-ynamide] |  |  | < 10 nM |  | < 10 nM | < 10 nM | ≥ 1000 nM | < 10 nM
11 | Cc1c(C(=O)NCCNC(=O)[C@H](C)N(C)C(=O)/C=C/CN(C)C)c[nH]c1/C=C1\C(=O)Nc2ccc(F)cc21 [Compound 26, N-(2-((S)-2-((E)-4-(dimethylamino)-N-methylbut-2-enamido)propanamido)ethyl)-5-((Z)-(5-fluoro-2-oxoindolin-3-ylidene)methyl)-4-methyl-1H-pyrrole-3-carboxamide] | 100 to 1000 nM | < 10 nM | < 10 nM | 100 to 1000 nM | < 10 nM | < 10 nM | ≥ 1000 nM | 
